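Growth conditions: 96-well plates. Treatment: test compound, 48 hours, 5 concentrations. Analysis: linear interpolation between bracketing concentrations; unreached endpoints set to highest concentration. At the GI50, growth is halved. The concentration for full growth arrest is given as TGI.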
System: OVCAR-4 ovarian
Experiment: DTP human tumour cell line panel, 48 h

| SMILES | GI50 | TGI |
| --- | --- | --- |
| COc1cc(N=Nc2ccc(O)c3ncccc23)c2ncccc2c1 | 1.68 µM | > 100 µM |
| CCn1c(O)c(/C=N/NC(=O)C(C)c2ccc(CC(C)C)cc2)sc1=S (stereo not drawn) | 1.08 µM | > 52 µM |
| C[C@@H]1C[C@@H]([C@@H](CC2CC(=O)NC(=O)C2)OC(=O)CC(=O)c2ccccc2)C(=O)[C@@H](C)C1 | 1.91 µM | > 100 µM |
| Cc1nc(Nc2cccnc2)sc1C(=O)/C=C/c1ccc(F)cc1 | 4.29 µM | > 100 µM |
| N=c1c2c(-c3ccccc3)c(-c3ccccc3)n(Cc3ccccc3)c2ncn1C1CCC(O)CC1 (stereo not drawn) | 1.43 µM | 13.1 µM |
| O=c1c(F)cn(Cc2ccc(C34CC5CC(CC(C5)C3)C4)c(O)c2)c(=O)n1Cc1ccc(C23CC4CC(CC(C4)C2)C3)c(O)c1 | 14.8 µM | 30.8 µM |
| CCOC(=O)Nc1cc2c(c(N)n1)N=C(c1ccccc1)CO2 | 2.46 µM | 36.4 µM |
| CC1CC2CCCC(O)=C2C(=O)O1 (stereo not drawn) |  | > 100 µM |
| O=c1oc2ccc(-c3ccc(F)cc3F)cc2c(=O)n1-c1cccc(C(F)(F)F)c1 | 1.67 µM | 13.6 µM |
| COC(=O)c1ccc2c(c1)C(=O)c1c-2n(CCCN=[N+]=[N-])c(=O)c2cc(OC)c(OC)cc12 | > 100 µM | > 100 µM |

System: NCI-H460 lung
Experiment: DTP human tumour cell line panel, 48 h

| SMILES | GI50 | TGI |
| --- | --- | --- |
| CC1(C)OC2C(CO[Si](C)(C)C(C)(C)C)OC(n3c(I)c(C#C[Si](C)(C)C)c(=O)[nH]c3=O)C2O1 (stereo not drawn) | 16.8 µM | 34.2 µM |
| CN(C)CC[C@H](CSc1ccccc1)Nc1ccc(S(=O)(=O)NC(=O)c2ccc(N3CCN(Cc4ccccc4-c4ccc(Cl)cc4)CC3)cc2)cc1[N+](=O)[O-] | 3.52 µM | 23.9 µM |
| COc1ccc(-c2ccc(=O)oc2C#Cc2cc(OC)c(OC)c(OC)c2)cc1O | 0.287 µM | 4.59 µM |
| O=C(/C=C/c1ccc[nH]1)c1ccc(-n2ccc(C(F)(F)F)n2)cc1 | 84.2 µM | > 100 µM |
| O=C(c1ccco1)c1c(C(F)(F)F)nc2ccc(Cl)cc2[n+]1[O-] | > 100 µM | > 100 µM |
| COc1ccc(-c2nnc3n(C)c(=O)c4ccccc4n23)cc1N | 0.0508 µM | > 100 µM |
| COc1ccc2nc3ccccc3c(NCc3ccc(F)cc3)c2c1 | 1.78 µM | 6.18 µM |
| CN(C)C1CCN(C(=O)c2ccc(NC(=O)Nc3ccc(-c4nc(N5CCOCC5)c5cccn5n4)cc3)cc2)CC1 | 0.0587 µM | 13.6 µM |
| COc1cc(N=Nc2ccc(O)c3ncccc23)c2ncccc2c1 | 3.13 µM | > 100 µM |
| CCn1c(O)c(/C=N/NC(=O)C(C)c2ccc(CC(C)C)cc2)sc1=S (stereo not drawn) | 0.353 µM | 10.9 µM |
| C[C@@H]1C[C@@H]([C@@H](CC2CC(=O)NC(=O)C2)OC(=O)CC(=O)c2ccccc2)C(=O)[C@@H](C)C1 | 0.461 µM | > 43.9 µM |
| Cc1nc(Nc2cccnc2)sc1C(=O)/C=C/c1ccc(F)cc1 | 2.68 µM | 6.9 µM |
| N=c1c2c(-c3ccccc3)c(-c3ccccc3)n(Cc3ccccc3)c2ncn1C1CCC(O)CC1 (stereo not drawn) | 0.0542 µM | 1.5 µM |
| O=c1c(F)cn(Cc2ccc(C34CC5CC(CC(C5)C3)C4)c(O)c2)c(=O)n1Cc1ccc(C23CC4CC(CC(C4)C2)C3)c(O)c1 | 9.76 µM | 37.2 µM |
| CCOC(=O)Nc1cc2c(c(N)n1)N=C(c1ccccc1)CO2 | 0.0659 µM | 5.26 µM |
| CC1CC2CCCC(O)=C2C(=O)O1 (stereo not drawn) |  | > 100 µM |
| O=c1oc2ccc(-c3ccc(F)cc3F)cc2c(=O)n1-c1cccc(C(F)(F)F)c1 | 0.999 µM | 10.3 µM |
| COC(=O)c1ccc2c(c1)C(=O)c1c-2n(CCCN=[N+]=[N-])c(=O)c2cc(OC)c(OC)cc12 | > 100 µM | > 100 µM |

System: UO-31 renal
Experiment: DTP human tumour cell line panel, 48 h

| SMILES | GI50 | TGI |
| --- | --- | --- |
| CC1(C)OC2C(CO[Si](C)(C)C(C)(C)C)OC(n3c(I)c(C#C[Si](C)(C)C)c(=O)[nH]c3=O)C2O1 (stereo not drawn) | 2.63 µM | 10.4 µM |
| CN(C)CC[C@H](CSc1ccccc1)Nc1ccc(S(=O)(=O)NC(=O)c2ccc(N3CCN(Cc4ccccc4-c4ccc(Cl)cc4)CC3)cc2)cc1[N+](=O)[O-] | 3.53 µM | 27.6 µM |
| COc1ccc(-c2ccc(=O)oc2C#Cc2cc(OC)c(OC)c(OC)c2)cc1O | 0.585 µM |  |
| O=C(/C=C/c1ccc[nH]1)c1ccc(-n2ccc(C(F)(F)F)n2)cc1 | 0.56 µM | 2.4 µM |
| O=C(c1ccco1)c1c(C(F)(F)F)nc2ccc(Cl)cc2[n+]1[O-] | > 100 µM | > 100 µM |
| COc1ccc(-c2nnc3n(C)c(=O)c4ccccc4n23)cc1N | 4.96 µM | > 100 µM |
| COc1ccc2nc3ccccc3c(NCc3ccc(F)cc3)c2c1 | 0.962 µM | 3.96 µM |
| CN(C)C1CCN(C(=O)c2ccc(NC(=O)Nc3ccc(-c4nc(N5CCOCC5)c5cccn5n4)cc3)cc2)CC1 | 1.15 µM | 10.1 µM |
| COc1cc(N=Nc2ccc(O)c3ncccc23)c2ncccc2c1 | 2.56 µM | 25.3 µM |
| CCn1c(O)c(/C=N/NC(=O)C(C)c2ccc(CC(C)C)cc2)sc1=S (stereo not drawn) | 0.483 µM | 16.8 µM |
| C[C@@H]1C[C@@H]([C@@H](CC2CC(=O)NC(=O)C2)OC(=O)CC(=O)c2ccccc2)C(=O)[C@@H](C)C1 | 0.159 µM | 5.1 µM |
| Cc1nc(Nc2cccnc2)sc1C(=O)/C=C/c1ccc(F)cc1 | 2.81 µM | 16.9 µM |
| N=c1c2c(-c3ccccc3)c(-c3ccccc3)n(Cc3ccccc3)c2ncn1C1CCC(O)CC1 (stereo not drawn) | 0.258 µM | 1.65 µM |
| O=c1c(F)cn(Cc2ccc(C34CC5CC(CC(C5)C3)C4)c(O)c2)c(=O)n1Cc1ccc(C23CC4CC(CC(C4)C2)C3)c(O)c1 | 17.5 µM | 41.4 µM |
| CCOC(=O)Nc1cc2c(c(N)n1)N=C(c1ccccc1)CO2 | 0.459 µM | 6.53 µM |
| CC1CC2CCCC(O)=C2C(=O)O1 (stereo not drawn) |  | > 100 µM |
| O=c1oc2ccc(-c3ccc(F)cc3F)cc2c(=O)n1-c1cccc(C(F)(F)F)c1 | 1.38 µM | 8.22 µM |
| COC(=O)c1ccc2c(c1)C(=O)c1c-2n(CCCN=[N+]=[N-])c(=O)c2cc(OC)c(OC)cc12 | > 100 µM | > 100 µM |
